According to ChEMBL document CHEMBL2157932, “Synthesis and pharmacological evaluation of carbamic acid 1-phenyl-3-(4-phenyl-piperazine-1-yl)-propyl ester derivatives as new analgesic agents” (Bioorg Med Chem Lett, 2012):

Experiments:
[1] = biological target: 5-hydroxytryptamine receptor 2A (Rattus norvegicus) (UniProt P14842); assay: Displacement of [3H]-ketanserin from 5HT2A receptor in rat cortical membrane at 1 uM; format: cell membranes
[2] = biological target: T1, 5-hydroxytryptamine receptor 1A (Rattus norvegicus) (UniProt P19327); assay: Displacement of [3H]-8-OH-DPAT from 5HT1A receptor in rat hippocampus at 1 uM; format: tissue-based
T1 sequence (whole entry): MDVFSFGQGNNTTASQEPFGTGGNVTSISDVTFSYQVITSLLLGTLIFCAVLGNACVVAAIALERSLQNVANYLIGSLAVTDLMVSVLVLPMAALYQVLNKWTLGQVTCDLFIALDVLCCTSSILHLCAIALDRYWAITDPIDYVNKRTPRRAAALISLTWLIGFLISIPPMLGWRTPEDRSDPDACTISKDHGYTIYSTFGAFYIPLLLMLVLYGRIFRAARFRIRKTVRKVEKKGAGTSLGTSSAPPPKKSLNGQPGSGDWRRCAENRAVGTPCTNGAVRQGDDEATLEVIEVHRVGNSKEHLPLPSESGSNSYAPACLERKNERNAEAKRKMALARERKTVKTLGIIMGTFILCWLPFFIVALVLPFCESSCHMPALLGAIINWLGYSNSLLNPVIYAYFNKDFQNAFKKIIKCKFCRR

Mus musculus [3] = assay: Neurotoxicity in mouse at 50 mg/kg, ip by rotarod test; format: toxicity, organism-based; set-up: dose 50 mg/kg, route intraperitoneal; settings: in vivo
Mus musculus [4] = assay: Analgesic activity in mouse assessed as inhibition of acetic acid-induced writhing response at 10 mg/kg, ip administered 0.5 to 1 hr before acetic acid challenge; format: functional; settings: route intraperitoneal
Mus musculus [5] = assay: Analgesic activity in mouse assessed as inhibition of acetic acid-induced writhing response at 10 mg/kg, po administered 0.5 to 1 hr before acetic acid challenge; format: functional
[6] = biological target: T2, 5-hydroxytryptamine receptor 1A (Rattus norvegicus, UniProt P19327); assay: Displacement of [3H]-8-OH-DPAT from 5HT1A receptor in rat hippocampus; format: tissue-based
T2 sequence (P19327 whole entry): T1 sequence (whole entry)

[7] = biological target: 5-hydroxytryptamine receptor 2A (Rattus norvegicus, UniProt P14842); assay: Displacement of [3H]-ketanserin from 5HT2A receptor in rat cortical membrane; format: cell membranes
Mus musculus [8] = assay: Antinociceptive activity in late phase po dosed mouse by formalin test; format: functional
Rattus norvegicus = assay: Antiinflammatory activity in po dosed rat persistent inflammatory pain model assessed as inhibition of carrageenan-induced mechanical hyperalgesia; format: functional
Mus musculus [9] = assay: Antinociceptive activity in po dosed mouse by hot plate test; format: functional
Mus musculus [10] = assay: Analgesic activity in ip dosed mouse assessed as inhibition of acetic acid-induced writhing response administered 0.5 to 1 hr before acetic acid challenge; format: functional
Mus musculus [11] = assay: Analgesic activity in po dosed mouse assessed as inhibition of acetic acid-induced writhing response administered 0.5 to 1 hr before acetic acid challenge; format: functional
Mus musculus [12] = assay: Neurotoxicity in mouse at 20 mg/kg, ip by rotarod test; format: toxicity, organism-based; set-up: dose 20 mg/kg, route intraperitoneal; settings: in vivo
[13] = Neurotoxicity in po dosed mouse by rotarod test; format: toxicity, organism-based; settings: in vivo
[14] = Half life in rat liver microsomes by LC/MS/MS; format: ADME, Microsome
[15] = Half life in human liver microsomes by LC/MS/MS; format: ADME, Microsome
[16] = Neurotoxicity in ip dosed mouse by rotarod test; format: toxicity, organism-based; settings: in vivo

Chain of 5-hydroxytryptamine receptor 2A (P14842 whole entry): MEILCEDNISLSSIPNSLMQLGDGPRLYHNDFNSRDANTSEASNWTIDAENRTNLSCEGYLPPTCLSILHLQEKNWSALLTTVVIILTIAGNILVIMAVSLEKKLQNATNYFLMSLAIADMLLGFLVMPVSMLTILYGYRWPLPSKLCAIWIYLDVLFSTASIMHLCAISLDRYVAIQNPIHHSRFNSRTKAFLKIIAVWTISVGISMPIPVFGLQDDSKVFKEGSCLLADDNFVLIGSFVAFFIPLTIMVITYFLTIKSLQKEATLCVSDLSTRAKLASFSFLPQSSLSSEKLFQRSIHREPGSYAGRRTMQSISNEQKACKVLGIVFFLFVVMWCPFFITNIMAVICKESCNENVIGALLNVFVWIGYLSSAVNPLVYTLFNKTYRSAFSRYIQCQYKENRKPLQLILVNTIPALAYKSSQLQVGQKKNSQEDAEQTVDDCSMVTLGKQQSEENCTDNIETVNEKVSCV
Chain of 5-hydroxytryptamine receptor 2A (Rattus norvegicus) (P14842 whole entry): as above

With `COc1ccc(C(CCN2CCN(c3ccccc3)CC2)OC(N)=O)cc1` (single isomer, unassigned) the inhibition [1] was 82%, the inhibition [2] was 67.7% and the Activity (Mus musculus [3]) was “Toxic”. For the same compound, the inhibition in vivo at 10 mg/kg (Mus musculus [4]) was 100% and the inhibition in vivo at 10 mg/kg (Mus musculus [5]) was 43%.

With `Cc1ccccc1N1CCN(CCC(OC(N)=O)c2ccccc2)CC1` (single isomer, unassigned) the IC50 [6] was 0.149 µM and the IC50 [7] was 0.0783 µM.

`COc1cc(OC)cc(N2CCN(CCC(OC(N)=O)c3ccccc3)CC2)c1` (single isomer, unassigned) showed an inhibition in vivo at 10 mg/kg (Mus musculus [5]) of 13%.

Compound `O[C@H](CCN1CCN(c2ccccc2)CC1)c1ccccc1` has an IC50 [6] of 0.174 µM, an IC50 [7] of 0.452 µM and an inhibition in vivo at 10 mg/kg (Mus musculus [4]) of 70.1%.

Compound `NC(=O)OC(CCN1CCN(c2ccc(C(F)(F)F)cc2)CC1)c1ccccc1` (single isomer, unassigned) has an IC50 [6] of 7.22 µM and an IC50 [7] of 2.11 µM.

With `Cc1cccc(C)c1N1CCN(CCC(OC(N)=O)c2ccccc2)CC1` (single isomer, unassigned) the inhibition in vivo at 10 mg/kg (Mus musculus [5]) was 48%.

For `CN1CC[C@]23c4c5ccc(O)c4O[C@H]2[C@@H](O)C=C[C@H]3[C@H]1C5` [MORPHINE], the ED50 (Mus musculus [8]) was 9.15 mg/kg, the ED50 (Rattus norvegicus) was 0.6 mg/kg and the ED50 (Mus musculus [9]) was 13.5 mg/kg. The ED50 (Mus musculus [10]) was 0.96 mg/kg and the ED50 (Mus musculus [11]) was 5.57 mg/kg.

In the case of `NC(=O)OC(CCN1CCN(c2ccc(F)cc2)CC1)c1ccccc1` (single isomer, unassigned), the IC50 [6] is reported as 10.5 µM, the Activity (Mus musculus [12]) is reported as “Toxic” and the ED50 (Mus musculus [10]) is reported as 0.55 mg/kg. The inhibition in vivo at 10 mg/kg (Mus musculus [5]) was 88%.

`COc1ccc(C(CCN2CCN(c3ccc(OC)cc3)CC2)OC(N)=O)cc1` (stereo unspecified) showed an inhibition in vivo at 10 mg/kg (Mus musculus [5]) of 53%.

For `COc1ccc(N2CCN(CCC(OC(N)=O)c3ccc(Cl)c(C(F)(F)F)c3)CC2)cc1` (single isomer, unassigned), the inhibition in vivo at 10 mg/kg (Mus musculus [5]) was 46%.

`COc1ccc(N2CCN(CCC(OC(N)=O)c3ccc(Cl)cc3Cl)CC2)cc1` (single isomer, unassigned) showed an inhibition in vivo at 10 mg/kg (Mus musculus [5]) of 16%.

For `O=C(CCN1CCN(c2ccccc2)CC1)c1ccccc1`, the IC50 [6] was 0.0475 µM, the IC50 [7] was 1.07 µM and the inhibition in vivo at 10 mg/kg (Mus musculus [4]) was 37.2%.

For `NC(=O)OC(CCN1CCN(c2ccccc2)CC1)c1ccc([N+](=O)[O-])cc1` (single isomer, unassigned), the TD50 [13] was 53.4 mg/kg, the inhibition [1] was 88% and the inhibition [2] was 81.4%. The Activity (Mus musculus [3]) was “Toxic”, the inhibition in vivo at 10 mg/kg (Mus musculus [4]) was 100% and the inhibition in vivo at 10 mg/kg (Mus musculus [5]) was 91.2%.

Work on `Cc1ccc(N2CCN(CCC(OC(N)=O)c3ccccc3)CC2)c(C)c1` (single isomer, unassigned) yielded an inhibition in vivo at 10 mg/kg (Mus musculus [5]) of 34%.

With `NC(=O)O[C@H](CCN1CCN(c2ccccc2)CC1)c1ccccc1` the half-life [14] was 8 min, the IC50 [6] was 0.534 µM and the IC50 [7] was 0.062 µM. For the same compound, the ED50 (Mus musculus [10]) was 0.18 mg/kg and the half-life [15] was 62 min.

In the case of `NC(=O)OC(CCN1CCN(c2ccccc2O)CC1)c1ccccc1` (single isomer, unassigned), the inhibition in vivo at 10 mg/kg (Mus musculus [5]) is reported as 37%.

Compound `NC(=O)OC(CCN1CCN(c2ccc(Cl)c(C(F)(F)F)c2)CC1)c1ccccc1` (single isomer, unassigned) has an inhibition in vivo at 10 mg/kg (Mus musculus [5]) of 52%.

Compound `NC(=O)OC(CCN1CCN(c2ccc(O)cc2)CC1)c1ccc(F)cc1` (single isomer, unassigned) has a half-life [15] of 149 min.

Work on `NC(=O)OC(CCN1CCN(c2ccc(F)cc2)CC1)c1ccc(F)cc1` (single isomer, unassigned) yielded an inhibition [1] of 93.9%, an inhibition [2] of 60.9% and an inhibition in vivo at 10 mg/kg (Mus musculus [5]) of 52%.

Compound `NC(=O)OC(CCN1CCN(c2ccccc2)CC1)c1ccc(F)cc1` (stereo unspecified) has a TD50 [13] of 141 mg/kg, an inhibition [1] of 84.7% and an inhibition [2] of 65.5%. The Activity (Mus musculus [3]) was “Non-toxic”, the inhibition in vivo at 10 mg/kg (Mus musculus [4]) was 99% and the half-life [15] was 18 min.

`NC(=O)OC(CCN1CCN(c2ccccc2F)CC1)c1ccccc1` (single isomer, unassigned) showed a TD50 [16] of 44.7 mg/kg.

For `Cc1ccc(N2CCN(CCC(OC(N)=O)c3ccccc3)CC2)cc1` (single isomer, unassigned), the IC50 [6] was 1.28 µM and the IC50 [7] was 0.369 µM.

`NC(=O)OC(CCN1CCN(c2ccccc2)CC1)c1cccc([N+](=O)[O-])c1` (single isomer, unassigned) gave an inhibition [1] of 86.4%, an inhibition [2] of 74.6% and an inhibition in vivo at 10 mg/kg (Mus musculus [4]) of 100%. The inhibition in vivo at 10 mg/kg (Mus musculus [5]) was 48%.

`NC(=O)OC(CCN1CCN(c2ccc(OC(F)(F)F)cc2)CC1)c1ccccc1` (single isomer, unassigned) showed an inhibition in vivo at 10 mg/kg (Mus musculus [5]) of 18%.
